Test results from US20240139170A1, “TOPICAL FORMULATIONS OF A JAK 1/3 INHIBITOR AND METHODS OF USE THEREOF FOR TREATMENT OF ATOPIC DERMATITIS AND OTHER SKIN CONDITIONS” (ACLARIS THERAPEUTICS, INC., priority 2021, published 2024).
Values joined by “and” are separate entries in the source; they are usually repeats but may differ in a detail not shown here. Equal entries are not always repeated. “Also recorded” adds a separate entry of the source.

Experiments:
[1] = system: moderate or severe atopic dermatitis; experiment: Phase 2a study, efficacy (EASI/mEASI, PP-NRS); format: in vivo, human
Text: (§1) PK blood draws assessed systemic exposure.
Fifty (50) subjects, aged 18-65 years, male and female were selected to use either a topical formulation comprising 2% w/w Compound I or a placebo. Pertinent inclusion criteria for the study included: (i) a diagnosis of atopic dermatitis (AD) fulfilled the specified diagnostic criteria of Hanifin and Rajka (Hanifin J M, Rajka G. Diagnostic features of atopic dermatitis. Acta Derm Venereol. Suppl 1980; 92: 44-7, which is hereby incorporated by reference in its entirety); (ii) a 6-month history of AD; (iii) no significant AD flares for 4 weeks prior; (iv) at least 1 lesion measuring […], but not located on the hands, feet, or genitalia; (v) a stable diagnosis of moderate or severe (Investigator's Global Assessment (IGA) score of 3 or 4); (vi) Eczema Area and Severity Index (EASI) score of ≤48; and (vii) have AD affecting 3% to 20% of Body Surface Area (BSA) (not including head, […], soles of feet, groin, and genitalia).
The 50 subjects were randomized into 2% Compound I treatment (n=23) and vehicle treatment (n=25) groups. Two of the subjects were randomized but not treated. Of the allocated subjects, 91% (n=21) of the Compound I treatment group and 72% (n=18) completed the study. The demographics and baseline characteristics of the study subjects is provided below in Table 3.
(§2) The topical formulation was applied topically twice per day, approximately 8 to 12 hours apart. Up to 8 mL, 1 mL at a time, is applied to an identified AD target area of the subject and rubbed into said area by the subject to achieve a thin film on the skin. Less than 8 mL may be used if less is required to fully cover the identified AD target area. Subjects document symptoms of AD, such as itching, on a daily basis. Subjects were asked to abstain from washing the treated area within 6 hours after application, minimize sun exposure, refrain from using moisturizers, emollients, and sunscreen on the treatment areas, and refrain from activities that would cause profuse sweating (e.g., exercise) for a period of 6 hours after each application. The study ran 4 weeks. On days 1, 8, and 15, a pharmacokinetic sample (e.g., blood) was collected from each subject about 2 hours after application of the topical formulation. On day 28, the following pharmacokinetic samples were collected: • Subgroup 1: One sample before application and one sample at 0.5 to 2.5 hours post application • Subgroup 2: One sample at 2.5 to 5 hours post application and one sample at least 2 hours later • Subgroup 3: One sample at 5 to 8 hours post application and one sample at least 2 hours later (prior to the subsequent application)
On each of these days 1, 8, 15, and 28, symptoms of AD in each subject were evaluated by EASI score, IGA, PP-NRS, and BSA. Primary efficacy of treatment was measured by a percent change from baseline EASI (EASI at day 1) to EASI at day 28.
Further measurements of efficacy included percent change in EASI between each of days 1, 8, 15, and 28 as well as change from baseline and/or prior evaluation of IGA, AD BSA, and PP-NRS on days 8, 15, and 28; percent of subjects achieving IGA scores of 0 to 1 combined with an improvement of 2 or more points from baseline by day 28; proportion of subjects who achieve 50%, 75%, and 90% improvement in EASI score (compared to baseline).
The primary efficacy endpoint of this trial was the percent change from baseline in the Eczema Area and Severity Index (EASI) score at week 4.

[2] = Phase 2a study, plasma pharmacokinetics; format: in vivo, human
Method: as §1, §2

[3] = in vivo
[4] = Phase 2a study, plasma pharmacokinetics; format: in vivo, human; remark: listed apart in the source
[5] = Phase 2a study, safety (adverse events); details: for Candida infection: patients with at least one event: BID, N = 23

## CCOC(=O)c1cnc2[nH]ccc2c1N[C@@H]1CCCN(C(=O)CC#N)C1 [Compound I, ethyl (R)-4-((1-(2-cyanoacetyl)piperidin-3-yl)amino)-1H-pyrrolo[2,3-b]pyridine-5-carboxylate]
[1]; after one week, 2% BID
  Mean decrease in PP-NRS score relative to baseline: 1.72
[1]; end of week 1 (day 8), 2% BID
  Patients achieving 50% improvement in EASI score (EASI 50): 34.8%
  Patients achieving 75% improvement in EASI score (EASI 75): 13.0%
  Patients achieving 90% improvement in EASI score (EASI 90): 4.3%
[1]; end of week 2 (day 15), 2% BID
  Patients achieving 50% improvement in EASI score (EASI 50): 69.6%
  Patients achieving 75% improvement in EASI score (EASI 75): 21.7%
  Patients achieving 90% improvement in EASI score (EASI 90): 8.7%
[1]; end of week 4 (day 28), 2% BID
  Patients achieving 50% improvement in EASI score (EASI 50): 91.3%
  Patients achieving 75% improvement in EASI score (EASI 75): 65.2%
  Patients achieving 90% improvement in EASI score (EASI 90): 30.4%
[1]; week 4 (day 28), 2.0% topical solution BID, FAS N=23, primary endpoint
  Reduction in mean mEASI score from baseline: 74.4% and 74.5%
[2]; 2% BID topical, 4 weeks
  Mean drug levels in plasma relative to IC50: ≤ 5 % of the IC50
[2]; 4-week topical treatment, 2% BID
  Plasma samples with Compound I levels below the lower limit of quantitation of 0.1 ng/mL: Greater than 86%
[2]; 4-week topical treatment, treatment arm
  Plasma samples with concentration of the active compound below 1 ng/ml: greater than 86%
[2]; Day 1, 2 hr post dose
  Average plasma concentration: 1.604 ng/mL
[2]; Day 8, 2 hr post dose
  Average plasma concentration: 0.519 ng/mL
[2]; Day 28, pre dose
  Average plasma concentration: 0.328 ng/mL
[2]; IC50=36 ng/mL, 2% BID topical
  All plasma concentrations relative to IC50: less than half of the IC50
[2]; subject 004-0002, Day 1, hour 0 Predose, LLOQ 0.100
  Plasma Compound I CONC: <LLOQ
[2]; subject 004-0002, Day 1, hour 2, LLOQ 0.100
  Plasma Compound I CONC: <LLOQ
[2]; subject 004-0002, Day 8, hour 2
  Plasma Compound I CONC: 0.229 ng/mL
[2]; subject 004-0002, Day 15, hour 2, LLOQ 0.100
  Plasma Compound I CONC: <LLOQ
[2]; subject 004-0002, Day 28/ET, 0.5-2.5 hr
  Plasma Compound I CONC: 0.168 ng/mL
[2]; subject 004-0002, Day 28/ET, hour 0 Predose
  Plasma Compound I CONC: 0.165 ng/mL
[2]; subject 004-0004, Day 1, hour 0 Predose, LLOQ 0.100
  Plasma Compound I CONC: <LLOQ
[2]; subject 004-0004, Day 1, hour 2, LLOQ 0.100
  Plasma Compound I CONC: <LLOQ
[2]; subject 004-0004, Day 8, hour 0 Predose, LLOQ 0.100
  Plasma Compound I CONC: <LLOQ
[2]; subject 004-0004, Day 8, hour 2, LLOQ 0.100
  Plasma Compound I CONC: <LLOQ
[2]; subject 004-0004, Day 15, hour 2, LLOQ 0.100
  Plasma Compound I CONC: <LLOQ
[2]; subject 004-0004, Day 28/ET, 5-8 hr, LLOQ 0.100
  Plasma Compound I CONC: <LLOQ
[2]; subject 004-0004, Day 28/ET, 7-10 hr
  Plasma Compound I CONC: 0.104 ng/mL
[2]; subject 004-0008, Day 1, hour 2
  Plasma Compound I CONC: 1.62 ng/mL
[2]; subject 004-0008, Day 8, hour 0 Predose
  Plasma Compound I CONC: 0.616 ng/mL
[2]; subject 004-0008, Day 8, hour 2
  Plasma Compound I CONC: 0.639 ng/mL
[2]; subject 004-0008, Day 15, hour 0 Predose
  Plasma Compound I CONC: 0.740 ng/mL
[2]; subject 004-0008, Day 15, hour 2
  Plasma Compound I CONC: 0.512 ng/mL
[2]; subject 004-0008, Day 28/ET, 2.5-5 hr
  Plasma Compound I CONC: 0.543 ng/mL
[2]; subject 004-0008, Day 28/ET, 4.5-7 hr
  Plasma Compound I CONC: 0.441 ng/mL
[2]; subject 012-0001, Day 1, hour 0 Predose, LLOQ 0.100
  Plasma Compound I CONC: <LLOQ
[2]; subject 012-0001, Day 1, hour 2
  Plasma Compound I CONC: 14.9 ng/mL
[2]; subject 012-0001, Day 8, hour 2
  Plasma Compound I CONC: 1.50 ng/mL
[2]; subject 012-0001, Day 15, hour 0 Predose
  Plasma Compound I CONC: 0.521 ng/mL
[2]; subject 012-0001, Day 15, hour 2
  Plasma Compound I CONC: 1.05 ng/mL
[2]; subject 012-0001, Day 28/ET, 0.5-2.5 hr
  Plasma Compound I CONC: 3.71 ng/mL
[2]; subject 012-0001, Day 28/ET, hour 0 Predose
  Plasma Compound I CONC: 1.23 ng/mL
[2]; subject 012-0017, Day 1, hour 0 Predose, LLOQ 0.100
  Plasma Compound I CONC: <LLOQ
[2]; subject 012-0017, Day 1, hour 2
  Plasma Compound I CONC: 2.45 ng/mL
[2]; subject 012-0017, Day 8, hour 0 Predose
  Plasma Compound I CONC: 0.845 ng/mL
[2]; subject 012-0017, Day 8, hour 2
  Plasma Compound I CONC: 0.459 ng/mL
[2]; subject 012-0017, Day 15, hour 0 Predose
  Plasma Compound I CONC: 11.1 ng/mL
[2]; subject 012-0017, Day 15, hour 2
  Plasma Compound I CONC: 5.26 ng/mL
[2]; subject 012-0017, Day 28/ET, 5-8 hr
  Plasma Compound I CONC: 0.536 ng/mL
[2]; subject 012-0017, Day 28/ET, 7-10 hr
  Plasma Compound I CONC: 0.704 ng/mL
[2]; subject 13-0001, Day 1, hour 0 Predose, LLOQ 0.100
  Plasma Compound I CONC: <LLOQ
[2]; subject 13-0001, Day 1, hour 2
  Plasma Compound I CONC: 12.9 ng/mL
[2]; subject 13-0001, Day 8, hour 0 Predose
  Plasma Compound I CONC: 0.914 ng/mL
[2]; subject 13-0001, Day 8, hour 2
  Plasma Compound I CONC: 1.79 ng/mL
[2]; subject 13-0001, Day 15, hour 2
  Plasma Compound I CONC: 1.86 ng/mL
[2]; subject 13-0001, Day 28/ET, 0.5-2.5 hr
  Plasma Compound I CONC: 3.99 ng/mL
[2]; subject 13-0001, Day 28/ET, hour 0 Predose
  Plasma Compound I CONC: 0.530 ng/mL
[2]; whole study
  Highest plasma concentration in any subject: ≤ 15 ng/mL
  Samples with plasma concentrations > 1/10th the IC50: 6 total samples
  Subjects with plasma concentrations > 1/10th the IC50: 3 subjects
[3]; human
  Application site irritation: patients with at least one event: 0
  Oropharyngeal pain: patients with at least one event: 0
  Pharyngitis streptococcal: patients with at least one event: 0
  Rash: patients with at least one event: 0
  SARS-CoV-2 test positive: patients with at least one event: 0
  Sinus congestion: patients with at least one event: 0
  Skin fragility: patients with at least one event: 0
  Somnolence: patients with at least one event: 0
[3]; human, 4 weeks
  COVID-19: patients with at least one event: 0
  Related TEAE, last figure of the cell (number of events): 1
  Severe TEAE, last figure of the cell (number of events): 2
  Subjects reporting AEs: 9/23
  Subjects with at least one SAE: 0
  Subjects with at least one TEAE leading to discontinuation of study drug: 0
  Subjects with at least one TEAE, number (percent): 9 (39.1)
  Subjects with at least one related TEAE, number (percent): 1 (4.3)
  Subjects with at least one severe TEAE, number (percent): 2 (8.7)
  TEAE, last figure of the cell (number of events, agrees with Table 7): 16
[3]
  Severe adverse events: Two unrelated severe events (AF and elevated CPK)
  Thrombosis: no reports of thrombosis
  Tolerability: generally well tolerated
[4]; subject 004-0002, Day 8, hour 0 Predose
  Plasma Compound I CONC: 0.188 ng/mL
[4]; subject 004-0002, Day 15, hour 0 Predose
  Plasma Compound I CONC: 0.100 ng/mL
[4]; subject 004-0004, Day 15, hour 0 Predose, LLOQ 0.100
  Plasma Compound I CONC: <LLOQ
[4]; subject 004-0008, Day 1, hour 0 Predose, LLOQ 0.100
  Plasma Compound I CONC: <LLOQ
[4]; subject 012-0001, Day 8, hour 0 Predose
  Plasma Compound I CONC: 1.43 ng/mL
[4]; subject 13-0001, Day 15, hour 0 Predose
  Plasma Compound I CONC: 0.598 ng/mL
[5]; 4 weeks BID
  Deaths / serious adverse events: No deaths or SAEs were reported; also recorded: No serious adverse events were reported
[5]; Mild
  Candida infection: patients with at least one event: 0
[5]; Moderate
  Candida infection: patients with at least one event: 1 (4.3)
[5]; Severe
  Candida infection: patients with at least one event: 0
